Source: patent publication US20240033256A1, “INHIBITORS OF POSITIVE STRAND RNA VIRUSES” (priority 2020, published 2024)

How the values were obtained:
Dengue virus type 2 = Dengue virus type 2 IFA assay (E protein) in Vero E6 cells; assay type: cell-based; details: Dengue virus, Vero C1008, 120 h, MOI 0.02, 5 days at 33° C, read-out: DV2 EC50
Experimental: (§1) Compounds 1-9 were evaluated for their inhibitory activities against Dengue virus, another single positive-stranded RNA virus belonging to genus of flavivirus, using an IFA assay that targeted the Dengue virus Envelope (“E”) protein.
(§2) Vero E6 cells (BCRC #60476, Bioresource Collection and Research Center, Hsinchu, Taiwan) were treated with one of Compounds 1-9 at a predetermined concentration for 1 hour at 37° C. The cells were infected with Dengue virus type 1 (“DV1”, ATCC VR-1856, American Type Culture Collection, Manassas, VA, USA) at MOI=0.002 or Dengue virus type 2 (“DV2”, ATCC VR-1584, American Type Culture Collection, Manassas, VA, USA) at MOI=0.02, both for 5 days at 33° C. They were then fixed with 10% formalin and permeabilized with methanol. Subsequently, the cells were stained with anti-flavivirus E antibody (ATCC HB-112, American Type Culture Collection, Manassas, VA, USA) and anti-mouse IgG-FITC (MP Biomedicals, Irvine, CA, USA). The nuclei of the cells were counter stained with DAPI (Thermo Fisher Scientific, MA, USA). The E protein expression was measured by using a high-content image analysis system (Molecular Devices). The cell viability was determined by MTS. EC50 and CC50 were calculated by Prism software.

[1] = Vero E6 cell viability by MTS (Zika study); assay type: cell-based; details: African green monkey, Vero E6 cells
Experimental: (§3) Vero E6 cells (BCRC #60476, Bioresource Collection and Research Center, Hsinchu, Taiwan) were treated with one of Compounds 1-9 at a predetermined concentration for 1 hour at 37° C. The cells were adsorbed with Zika virus (ATCC VR-1843, American Type Culture Collection, Manassas, VA, USA) at MOI=0.02 for 49 hours at 37° C. The cells were fixed with 10% formalin, permeabilized with methanol. The cells were stained with anti-flavivirus E antibody (ATCC HB-112, American Type Culture Collection, Manassas, VA, USA) and anti-mouse IgG-FITC (MP Biomedicals, Irvine, CA, USA). The nuclei were counter stained with DAPI (in blue) (Thermo Fisher Scientific, MA, USA). The E protein expression was measured using a high-content image analysis system (Molecular Devices). The cell viability was determined by MTS. Both EC50 and CC50 were calculated by Prism software.
Their cytotoxic effects were also determined by the MTS assay described above using Vero E6 cells.

Dengue virus type 1 = Dengue virus type 1 IFA assay (E protein) in Vero E6 cells; assay type: cell-based; details: Dengue virus, Vero C1008, 120 h, MOI 0.002, 5 days at 33° C, read-out: DV1 EC50
Experimental: as §1, §2

HCoV-229E = HCoV-229E cytopathic effect / end point assay by TCID50 with crystal violet in MRC5 cells; details: Human coronavirus 229E, MRC5, read-out: EC50 (HCoV-229E)
Experimental: An end point assay by TCID50 was performed. Crystal violet was used to stain live cells to determine the EC50 of each compound. Further, CC50 and selective index were calculated.

[2] = HCT-8 cell viability (MTS); details: human, HCT-8 cells
Zika virus = Zika virus IFA assay (E protein) in Vero E6 cells; assay type: cell-based; details: Zika virus, Vero C1008, 49 h, Vero E6 cells; MOI 0.02; 49 hours; read-out: EC50 (Zika virus)
Experimental: Compounds 1-9 were evaluated for their inhibitory activities against Zika virus using an IFA assay, which targeted Zika virus Envelope (“E”) protein.
as §3

[3] = Vero E6 cell viability by MTS (Dengue study); assay type: cell-based; details: African green monkey, Vero E6 cells
Experimental: as §2

SARS-CoV-2 [4] = experiment: SARS-CoV-2 cytopathic effect (CPE) by visualization in infected Vero E6 cells; assay type: cell-based; details: Severe acute respiratory syndrome coronavirus 2, Vero C1008, read-out: SARS-CoV-2 inhibition EC50, CPE
Experimental: Compounds 1-3 were examined for their inhibitory activity against SARS-CoV-2 in Vero E6 cells. Cytopathic effects (“CPE”) of SARS-CoV-2 infected Vero E6 cells, with treatment of compounds in 2-fold dilution at a series of 12 concentrations, were visualized. EC50 and CC50 values were calculated.

HCoV-OC43 = HCoV-OC43 IFA assay (N protein) in HCT-8 cells; assay type: cell-based; details: for EC50: Betacoronavirus 1, OC43, HCT-8 cells, MOI 0.05, means ± S.D. from three independent experiments, read-out: EC50 (HCoV-OC43)
SARS-CoV-2 [5] = experiment: SARS-CoV-2 immunofluorescence assay (IFA), N protein expression in Vero E6 cells; assay type: cell-based
Experimental: Vero E6 cells derived from BCRC #60476 (Bioresource Collection and Research Center, Hsinchu, Taiwan) were treated with each compound at an indicated concentration for 1 hour at 37° C. The cells were adsorbed with SARS-CoV-2 viruses (TCDC #4, National Taiwan University, Taipei, Taiwan, ROC) at multiplicity of infection (“MOI”) of 0.01 for 1 hour at 37° C. After virus adsorption, the cells were washed with phosphate-buffered saline (“PBS”). A fresh medium containing the compound was added at an indicated concentration. The resultant mixture was incubated for 2 days. The cells were fixed with 4% paraformaldehyde and permeabilized with a 0.5% Triton™ X-100 detergent solution (Thermo Fisher Scientific, Waltham, MA). Subsequently, they were stained with an anti-SARS-CoV-2 N protein antibody and anti-human IgG-488 (in green). The nuclei of the cells were counter stained with 4′,6-diamidino-2-phenylindole (“DAPI”, Thermo Fisher Scientific, MA, USA). The N protein expression was measured using a high-content image analysis system (Molecular Devices, San Jose, CA). The cell viability was determined by Cell Counting Kit-8 (Sigma-Aldrich, St. Louis, MO) EC50 and CC50 values were calculated by Prism software. […] Both EC50 and CC50 are measured in molar units, e.g., mol/L (“M”), μmol/L (“μM”), and nmol/L (“nM”).

Row | Structure (SMILES) | EC50 (Dengue virus type 2) [nM] | CC50 [1] [nM] | EC50 (Dengue virus type 1) [nM] | EC50 (HCoV-229E) [nM] | CC50 [2] [nM] | EC50 (Zika virus) [nM] | CC50 [3] [nM] | EC50 (SARS-CoV-2 [4]) [nM] | EC50 (HCoV-OC43) [nM] | EC50 (SARS-CoV-2 [5]; Severe acute respiratory syndrome coronavirus 2, Vero C1008, 48 h, Vero E6 cells, MOI 0.01, 2 days, run 1, read-out: SARS-CoV-2 inhibition EC50, IFA-1) [nM] | EC50 (SARS-CoV-2 [5]; Severe acute respiratory syndrome coronavirus 2, Vero C1008, 48 h, Vero E6 cells, MOI 0.01, 2 days, run 2, read-out: SARS-CoV-2 inhibition EC50, IFA-2) [nM] | EC50 (SARS-CoV-2 [5]; Severe acute respiratory syndrome coronavirus 2, Vero C1008, IFA, range over Compounds 1, 2 and 3, read-out: EC50 against SARS-CoV-2 (range given)) [nM] | Selectivity index (HCoV-OC43) (HCoV-OC43; CC50/EC50, HCT-8 cells)
1 | CCN1Cc2c(c3ccc(OC)cc3c3cc(OC)c(OC)cc23)C(O)C1C (centres unmarked) [Compound 3] | 29 | > 5000 | 19.6 | 25.4 ± 3.1 | > 10000 | 15.9 | > 5000 | 20 | 55.9 ± 6.2 | 31.6 | 31.9 | 9 to 77 | –
2 | COc1cc2c3c(c4cc(OC)c(OC)cc4c2cc1OC)CN1CCCCC1C3 (centres unmarked) [Compound 4] | 8.3 | > 5000 | 7.6 | – | > 10000 | 13.3 | > 5000 | – | 51.7 ± 6.1 | – | – | – | –
3 | CCN1CCc2c(c3cc(OC)c(OC)cc3c3cc(OC)ccc23)C1 [Compound 5] | 286 | > 5000 | 131 | – | > 10000 | 156 | > 5000 | – | – | – | – | – | –
4 | COc1cc2c3c(c4cc(OC)c(OC)cc4c2cc1OC)C[N+]1([O-])CCCC1C3 (centres unmarked) [Compound 6] | 2640 | > 5000 | 1640 | – | > 10000 | 1040 | > 5000 | – | 1890 ± 228 | – | – | – | >5.3
5 | CCCN1Cc2c(c3cc(OC)c(OC)cc3c3cc(OC)c(OC)cc23)C(O)C1 (centres unmarked) [Compound 8] | 617 | > 5000 | 247 | – | – | 304 | > 5000 | – | – | – | – | – | –
